Counter-ions that a name gives are not always drawn.
Key:
Conditions in all cases: sulfur source concentration 200 µM; S. cerevisiae S288C/BY sul1Δ sul2Δ soa1Δ with transporter ortholog inserted at SOA1 locus; sulfur-free B medium, 4% glucose, pH 6.5, sole sulfur source
[1] = tested on: Aspergillus nidulans_XP_681611; experiment: maximal growth rate with compound as sole sulfur source (OD600 per h); higher = better growth / uptake of the sulfur source
Experimental: (§1)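 S. cerevisiae sul1Δ sul2Δ soa1Δ strains expressing 20 fungal SOA1 orthologs (or no transporter, 'soa1 del') were grown in liquid sulfur-free B medium, 4% glucose, pH 6.5 (7 mM K2HPO4). The strains were sulfur-starved for 3 days beforehand. Each sulfur compound was the sole sulfur source at 200 µM (sulfate also at 40 mM). OD600 curves of duplicate cultures were averaged and fitted (logistic / Richards, GroFit) to give maximal growth rate, maximal density and lag phase; temperature not stated.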

[2] = tested on: Saccharomyces uvarum_SOA1; experiment: as above
Experimental: as §1

[3] = tested on: Aspergillus nidulans_XP_661733; experiment: as above
Experimental: as §1

[4] = tested on: Saccharomyces eubayanus_SOA1; experiment: as above
Experimental: as §1

[5] = tested on: Metarhizium robertsii_XP_007822519; experiment: as above
Experimental: as §1

[6] = tested on: Ogataea parapolymorpha_XP_013932458; experiment: as above
Experimental: as §1

[7] = tested on: Aspergillus nidulans_CBF80346; experiment: as above
Experimental: as §1

[8] = tested on: Aspergillus nidulans_XP_660563; experiment: as above
Experimental: as §1

[9] = tested on: Saccharomyces cerevisiae_SOA1; experiment: as above
Experimental: as §1

[10] = tested on: Aspergillus nidulans_CBF74694; experiment: as above
Experimental: as §1

[11] = tested on: Metarhizium robertsii_XP_007823832; experiment: as above
Experimental: as §1

[12] = tested on: Ogataea parapolymorpha_XP_013936897; experiment: as above
Experimental: as §1

[13] = tested on: Aspergillus nidulans_XP_661711; experiment: as above
Experimental: as §1

[14] = tested on: soa1 del; experiment: as above
Experimental: as §1

[15] = tested on: Saccharomyces eubayanus_SOA2; experiment: as above
Experimental: as §1

[16] = tested on: Fusarium oxysporum_ENH65823; experiment: as above
Experimental: as §1

[17] = tested on: Ogataea parapolymorpha_XP_013935289; experiment: as above
Experimental: as §1

[18] = tested on: Aspergillus nidulans_XP_660670; experiment: as above
Experimental: as §1

[19] = tested on: Aspergillus nidulans (IAM 2006)_astA; experiment: as above
Experimental: as §1

[20] = tested on: Saccharomyces uvarum_SOA2; experiment: as above
Experimental: as §1

[21] = tested on: Metarhizium robertsii_XP_007821441; experiment: as above
Experimental: as §1

[22] = tested on: Aspergillus nidulans_XP_681611; experiment: maximal culture density with compound as sole sulfur source (OD600); higher = better growth
Experimental: as §1

[23] = tested on: Saccharomyces uvarum_SOA1; experiment: as above
Experimental: as §1

[24] = tested on: Aspergillus nidulans_XP_661733; experiment: as above
Experimental: as §1

[25] = tested on: Saccharomyces eubayanus_SOA1; experiment: as above
Experimental: as §1

[26] = tested on: Metarhizium robertsii_XP_007822519; experiment: as above
Experimental: as §1

[27] = tested on: Ogataea parapolymorpha_XP_013932458; experiment: as above
Experimental: as §1

[28] = tested on: Aspergillus nidulans_CBF80346; experiment: as above
Experimental: as §1

[29] = tested on: Aspergillus nidulans_XP_660563; experiment: as above
Experimental: as §1

[30] = tested on: Saccharomyces cerevisiae_SOA1; experiment: as above
Experimental: as §1

[31] = tested on: Aspergillus nidulans_CBF74694; experiment: as above
Experimental: as §1

[32] = tested on: Metarhizium robertsii_XP_007823832; experiment: as above
Experimental: as §1

[33] = tested on: Ogataea parapolymorpha_XP_013936897; experiment: as above
Experimental: as §1

[34] = tested on: Aspergillus nidulans_XP_661711; experiment: as above
Experimental: as §1

[35] = tested on: soa1 del; experiment: as above
Experimental: as §1

[36] = tested on: Saccharomyces eubayanus_SOA2; experiment: as above
Experimental: as §1

[37] = tested on: Fusarium oxysporum_ENH65823; experiment: as above
Experimental: as §1

[38] = tested on: Ogataea parapolymorpha_XP_013935289; experiment: as above
Experimental: as §1

[39] = tested on: Aspergillus nidulans_XP_660670; experiment: as above
Experimental: as §1

[40] = tested on: Aspergillus nidulans (IAM 2006)_astA; experiment: as above
Experimental: as §1

[41] = tested on: Saccharomyces uvarum_SOA2; experiment: as above
Experimental: as §1

[42] = tested on: Metarhizium robertsii_XP_007821441; experiment: as above
Experimental: as §1

[43] = tested on: Saccharomyces cerevisiae_SOA1; experiment: lag phase before growth; higher = slower start of growth
Experimental: as §1

[44] = tested on: Metarhizium robertsii_XP_007823832; experiment: as above
Experimental: as §1

[45] = tested on: Ogataea parapolymorpha_XP_013935289; experiment: as above
Experimental: as §1

[46] = tested on: Aspergillus nidulans (IAM 2006)_astA; experiment: as above
Experimental: as §1

[47] = tested on: Saccharomyces uvarum_SOA2; experiment: as above
Experimental: as §1

C[N+](C)(C)CCOS(=O)(=O)[O-] [Choline sulfate]
maximal growth rate [1]: 0.0057 | maximal growth rate [2]: 0.00649 | maximal growth rate [3]: 0.00364 | maximal growth rate [4]: 0.0058 | maximal growth rate [5]: 0.00309 | maximal growth rate [6]: 0.00365 | maximal growth rate [7]: 0.00384 | maximal growth rate [8]: 0.0061 | maximal growth rate [9]: 0.0576 | maximal growth rate [10]: 0.00254 | maximal growth rate [11]: 0.0809 | maximal growth rate [12]: 0.00441 | maximal growth rate [13]: 0.00345 | maximal growth rate [14]: 0.00393 | maximal growth rate [15]: 0.00319 | maximal growth rate [16]: 0.00381 | maximal growth rate [17]: 0.072 | maximal growth rate [18]: 0.00346 | maximal growth rate [19]: 0.0987 | maximal growth rate [20]: 0.00318 | maximal growth rate [21]: 0.00312 | maximal culture density [22]: 0.352 | maximal culture density [23]: 0.69 | maximal culture density [24]: 0.257 | maximal culture density [25]: 0.49 | maximal culture density [26]: 0.238 | maximal culture density [27]: 0.288 | maximal culture density [28]: 0.245 | maximal culture density [29]: 0.381 | maximal culture density [30]: 1.59 | maximal culture density [31]: 0.215 | maximal culture density [32]: 1.61 | maximal culture density [33]: 0.335 | maximal culture density [34]: 0.282 | maximal culture density [35]: 0.22 | maximal culture density [36]: 0.202 | maximal culture density [37]: 0.284 | maximal culture density [38]: 1.6 | maximal culture density [39]: 0.282 | maximal culture density [40]: 1.61 | maximal culture density [41]: 0.237 | maximal culture density [42]: 0.25 | lag phase before growth [43]: 28.7 h | lag phase before growth [44]: 8.32 h | lag phase before growth [45]: 19.4 h | lag phase before growth [46]: 6.39 h

O=S(=O)(O)CCO [Isethionate]
maximal growth rate [1]: 0.00854 | maximal growth rate [2]: 0.0659 | maximal growth rate [3]: 0.00489 | maximal growth rate [4]: 0.0612 | maximal growth rate [5]: 0.0519 | maximal growth rate [6]: 0.00421 | maximal growth rate [7]: 0.00382 | maximal growth rate [8]: 0.00647 | maximal growth rate [9]: 0.0707 | maximal growth rate [10]: 0.00301 | maximal growth rate [11]: 0.0144 | maximal growth rate [12]: 0.0049 | maximal growth rate [13]: 0.00367 | maximal growth rate [14]: 0.00355 | maximal growth rate [15]: 0.0595 | maximal growth rate [16]: 0.00374 | maximal growth rate [17]: 0.0699 | maximal growth rate [18]: 0.00369 | maximal growth rate [19]: 0.0178 | maximal growth rate [20]: 0.0695 | maximal growth rate [21]: 0.00324 | maximal culture density [22]: 0.373 | maximal culture density [23]: 1.59 | maximal culture density [24]: 0.269 | maximal culture density [25]: 1.58 | maximal culture density [26]: 1.59 | maximal culture density [27]: 0.242 | maximal culture density [28]: 0.213 | maximal culture density [29]: 0.332 | maximal culture density [30]: 1.61 | maximal culture density [31]: 0.195 | maximal culture density [32]: 0.501 | maximal culture density [33]: 0.289 | maximal culture density [34]: 0.233 | maximal culture density [35]: 0.235 | maximal culture density [36]: 1.7 | maximal culture density [37]: 0.233 | maximal culture density [38]: 1.59 | maximal culture density [39]: 0.232 | maximal culture density [40]: 0.489 | maximal culture density [41]: 1.71 | maximal culture density [42]: 0.223

NCCS(=O)(=O)O [Taurine]
maximal growth rate [1]: 0.0063 | maximal growth rate [2]: 0.00382 | maximal growth rate [3]: 0.00417 | maximal growth rate [4]: 0.00369 | maximal growth rate [5]: 0.00328 | maximal growth rate [6]: 0.00448 | maximal growth rate [7]: 0.00339 | maximal growth rate [8]: 0.00581 | maximal growth rate [9]: 0.0291 | maximal growth rate [10]: 0.00281 | maximal growth rate [11]: 0.0141 | maximal growth rate [12]: 0.0048 | maximal growth rate [13]: 0.0038 | maximal growth rate [14]: 0.00366 | maximal growth rate [15]: 0.00328 | maximal growth rate [16]: 0.00349 | maximal growth rate [17]: 0.0523 | maximal growth rate [18]: 0.00383 | maximal growth rate [19]: 0.0198 | maximal growth rate [20]: 0.0111 | maximal growth rate [21]: 0.0033 | maximal culture density [22]: 0.305 | maximal culture density [23]: 0.292 | maximal culture density [24]: 0.228 | maximal culture density [25]: 0.284 | maximal culture density [26]: 0.213 | maximal culture density [27]: 0.245 | maximal culture density [28]: 0.217 | maximal culture density [29]: 0.311 | maximal culture density [30]: 1.4 | maximal culture density [31]: 0.187 | maximal culture density [32]: 0.498 | maximal culture density [33]: 0.317 | maximal culture density [34]: 0.215 | maximal culture density [35]: 0.217 | maximal culture density [36]: 0.258 | maximal culture density [37]: 0.195 | maximal culture density [38]: 1.6 | maximal culture density [39]: 0.214 | maximal culture density [40]: 0.515 | maximal culture density [41]: 0.828 | maximal culture density [42]: 0.219 | lag phase before growth [43]: 9.53 h | lag phase before growth [45]: 7.77 h | lag phase before growth [47]: 7.75 h

From the supplement of paper PMC5303821, “Major sulfonate transporter Soa1 in Saccharomyces cerevisiae and considerable substrate diversity in its fungal family” (Nature Communications, 2017)
